{"source": "patent US20050260126A1", "about": "(priority 2002, published 2005)", "key": {"ScN2a cells": {"test_system": "ScN2a cells", "settings": "for Concentration of inhibiting cell proliferation TC: mouse"}, "in vivo": {"assay": "in vivo", "settings": "male, Crj:CD1, mouse, iv"}, "[1]": {"test_system": "abnormal prion proteins in ScN2a cells with persistent infection of scrapie", "assay": "cells", "type": "cell-based, mouse", "settings": "for pIC50: Mus musculus, ScN2a, 96 h, read-out: Inhibitory effects on producing abnormal prion protein IC50; for Inhibitory effects on producing abnormal prion proteins (in words): ScN2a cells"}, "[2]": {"test_system": "abnormal prion proteins (kuru plaques) in brain sections of GSS patients", "design": "species or system human", "settings": "GSS patient brain sections, 10-200 μM in 50% ethanol, 30 minutes"}, "[3]": {"settings": "Slc:ICR, mouse, not told, iv"}, "[4]": {"test_system": "abnormal prion proteins in ScN2a cells with persistent infection of scrapie", "settings": "read-out: Inhibitory effects on producing abnormal prion protein IC50 (quinacrine, literature), Doh-ura et al. 2000; cited from earlier work"}}, "note": "pIC50: −log10 of the molar value. Counter-ions that a name gives are not always drawn. Like-named read-outs stand apart in the source and are kept apart here.", "data": [{"smiles": "CN(C)c1ccc(/C=C/c2ccc3ccccc3n2)cc1", "note": "[BF-179, 2-[2-(4-dimethylamino-phenyl)ethenyl]-quinoline]", "values": [{"measurement": "Concentration of inhibiting cell proliferation TC", "setting": "ScN2a cells", "value": 5, "unit": "µM"}, {"measurement": "MTD", "setting": "in vivo", "value": "≥ 10", "unit": "mg/kg"}, {"measurement": "pIC50", "setting": "[1]", "value": 8.30}, {"measurement": "Detection of spotted depositions of abnormal prion proteins (fluorescent signals)", "setting": "[2]", "value": "spotted fluorescent signals were observed"}, {"measurement": "Permeability into the brain: content in Brain", "setting": "[3]", "value": "4.3 % ID/g or ml"}, {"measurement": "Permeability into the brain: content in Plasma", "setting": "[3]", "value": "1.7 % ID/g or ml"}]}, {"smiles": "CCN(CC)c1ccc(/C=C/c2nc3ccccc3[nH]2)cc1", "note": "[BF-126, 4-[2-(2-benzimidazole)-ethenyl]-N,N-diethyl-benzenamine p-toluenesulfonate]", "values": [{"measurement": "Concentration of inhibiting cell proliferation TC", "setting": "ScN2a cells", "value": 25, "unit": "µM"}, {"measurement": "MTD", "setting": "in vivo", "value": "≥ 10", "unit": "mg/kg"}, {"measurement": "pIC50", "setting": "[1]", "value": 7.00}, {"measurement": "Detection of spotted depositions of abnormal prion proteins (fluorescent signals)", "setting": "[2]", "value": "spotted fluorescent signals were observed"}, {"measurement": "Permeability into the brain: content in Brain", "setting": "[3]", "value": "7.2 % ID/g or ml"}, {"measurement": "Permeability into the brain: content in Plasma", "setting": "[3]", "value": "2.7 % ID/g or ml"}]}, {"smiles": "CNc1ccc(/C=C/c2nc3ccc(O)cc3o2)cc1", "note": "[BF-165, 2-(4-methylamino)-styl-6-hydroxy-benzoazole]", "values": [{"measurement": "Concentration of inhibiting cell proliferation TC", "setting": "ScN2a cells", "value": 100, "unit": "µM"}, {"measurement": "MTD", "setting": "in vivo", "value": "≥ 10", "unit": "mg/kg"}, {"measurement": "pIC50", "setting": "[1]", "value": 8.00}, {"measurement": "Detection of spotted depositions of abnormal prion proteins (fluorescent signals)", "setting": "[2]", "value": "spotted fluorescent signals were observed"}, {"measurement": "Permeability into the brain: content in Brain", "setting": "[3]", "value": "7.2 % ID/g or ml"}, {"measurement": "Permeability into the brain: content in Plasma", "setting": "[3]", "value": "1.9 % ID/g or ml"}]}, {"smiles": "CCN(CC)c1ccc(/C=C/c2nc3ccccc3o2)cc1", "note": "[BF-125, 4-[2-(2-benzoxazolyl)ethenyl]-N,N-diethyl benzeneamine hydrochloride]", "values": [{"measurement": "Concentration of inhibiting cell proliferation TC", "setting": "ScN2a cells", "value": 50, "unit": "µM"}, {"measurement": "MTD", "setting": "in vivo", "value": "≥ 10", "unit": "mg/kg"}, {"measurement": "pIC50", "setting": "[1]", "value": 7.00}, {"measurement": "Detection of spotted depositions of abnormal prion proteins (fluorescent signals)", "setting": "[2]", "value": "spotted fluorescent signals were observed"}, {"measurement": "Permeability into the brain: content in Brain", "setting": "[3]", "value": "3.0 % ID/g or ml"}, {"measurement": "Permeability into the brain: content in Plasma", "setting": "[3]", "value": "2.5 % ID/g or ml"}]}, {"smiles": "CCN(CC)c1ccc(/C=C/c2nc3cc(F)ccc3[nH]2)cc1", "note": "[BF-166, 2-(4-diethylamino)-styryl-5-fluoro-benzimidazole]", "values": [{"measurement": "Concentration of inhibiting cell proliferation TC", "setting": "ScN2a cells", "value": 10, "unit": "µM"}, {"measurement": "MTD", "setting": "in vivo", "value": "< 10", "unit": "mg/kg"}, {"measurement": "pIC50", "setting": "[1]", "value": 8.00}, {"measurement": "Detection of spotted depositions of abnormal prion proteins (fluorescent signals)", "setting": "[2]", "value": "spotted fluorescent signals were observed"}]}, {"smiles": "C(=C\\c1nc2ccccc2s1)/c1ccccc1", "note": "[Compound N-438, 2-(2-phenylethenyl)-benzothiazole]", "values": [{"measurement": "Concentration of inhibiting cell proliferation TC", "setting": "ScN2a cells", "value": 100, "unit": "µM"}, {"measurement": "MTD", "setting": "in vivo", "value": "≥ 10", "unit": "mg/kg"}, {"measurement": "pIC50", "setting": "[1]", "value": 8.00}, {"measurement": "Detection of spotted depositions of abnormal prion proteins (fluorescent signals)", "setting": "[2]", "value": "spotted fluorescent signals were observed"}, {"measurement": "Permeability into the brain: content in Brain", "setting": "[3]", "value": "11 % ID/g or ml"}, {"measurement": "Permeability into the brain: content in Plasma", "setting": "[3]", "value": "1.9 % ID/g or ml"}]}, {"smiles": "CCN(CC)c1ccc(/C=C/c2nc3ccccc3s2)cc1", "note": "[BF-124, 4-[2-(2-benzothiazolyl)-ethenyl]-N,N-diethyl-benzenamine hydrochloride]", "values": [{"measurement": "Concentration of inhibiting cell proliferation TC", "setting": "ScN2a cells", "value": 100, "unit": "µM"}, {"measurement": "MTD", "setting": "in vivo", "value": "≥ 10", "unit": "mg/kg"}, {"measurement": "pIC50", "setting": "[1]", "value": 7.00}, {"measurement": "Detection of spotted depositions of abnormal prion proteins (fluorescent signals)", "setting": "[2]", "value": "spotted fluorescent signals were observed"}, {"measurement": "Permeability into the brain: content in Brain", "setting": "[3]", "value": "2.4 % ID/g or ml"}, {"measurement": "Permeability into the brain: content in Plasma", "setting": "[3]", "value": "1.6 % ID/g or ml"}]}, {"smiles": "CCN(CC)CCCC(C)Nc1c2ccc(Cl)cc2nc2ccc(OC)cc12", "note": "(centres unmarked) [quinacrine]", "values": [{"measurement": "pIC50", "setting": "[4]", "value": 6.40}]}, {"smiles": "CNc1ccc(/C=C/c2nc3ccc(OCCF)cc3o2)cc1", "note": "[BF-168, 6-(2-fluoroethoxy)-2-[2-(4-methylamino-phenyl)ethenyl]-benzoxazole]", "values": [{"measurement": "Concentration of inhibiting cell proliferation TC", "setting": "ScN2a cells", "value": 10, "unit": "µM"}, {"measurement": "MTD", "setting": "in vivo", "value": "≥ 10", "unit": "mg/kg"}, {"measurement": "pIC50", "setting": "[1]", "value": 9.00}, {"measurement": "Inhibitory effects on producing abnormal prion proteins (in words)", "setting": "[1]", "value": "highly inhibitory effects"}, {"measurement": "Detection of spotted depositions of abnormal prion proteins (fluorescent signals)", "setting": "[2]", "value": "spotted fluorescent signals were observed"}]}, {"smiles": "CN(C)c1ncc(/C=C/c2nc3ccc(OCCF)cc3o2)s1", "note": "[BF-227, 2-[2-(2-dimethylamino-thiazol-5-yl)ethenyl]-6-(2-fluoroethoxy) benzoxazole]", "values": [{"measurement": "Concentration of inhibiting cell proliferation TC", "setting": "ScN2a cells", "value": 10, "unit": "µM"}, {"measurement": "MTD", "setting": "in vivo", "value": "≥ 10", "unit": "mg/kg"}, {"measurement": "pIC50", "setting": "[1]", "value": 8.40}, {"measurement": "Detection of spotted depositions of abnormal prion proteins (fluorescent signals)", "setting": "[2]", "value": "spotted fluorescent signals were observed"}, {"measurement": "Permeability into the brain: content in Brain", "setting": "[3]", "value": "7.9 % ID/g or ml"}, {"measurement": "Permeability into the brain: content in Plasma", "setting": "[3]", "value": "2.1 % ID/g or ml"}]}, {"smiles": "Cc1ccc2sc(/C=C/c3ccc(Cl)cc3)nc2c1", "note": "[Compound N-441, 2-[2-(4-chlorophenyl)ethenyl]-5-methyl-benzothiazole]", "values": [{"measurement": "TC and safety concentration margin (in words)", "setting": "ScN2a cells", "value": "higher TCs, therefore higher safety concentration margins"}, {"measurement": "Concentration of inhibiting cell proliferation TC", "setting": "ScN2a cells", "value": 100, "unit": "µM"}, {"measurement": "MTD", "setting": "in vivo", "value": "≥ 10", "unit": "mg/kg"}, {"measurement": "pIC50", "setting": "[1]", "value": 9.00}, {"measurement": "Inhibitory effects on producing abnormal prion proteins (in words)", "setting": "[1]", "value": "highly inhibitory effects"}, {"measurement": "Detection of spotted depositions of abnormal prion proteins (fluorescent signals)", "setting": "[2]", "value": "spotted fluorescent signals were observed"}, {"measurement": "Permeability into the brain: content in Brain", "setting": "[3]", "value": "5.6 % ID/g or ml"}, {"measurement": "Permeability into the brain: content in Plasma", "setting": "[3]", "value": "2.7 % ID/g or ml"}]}, {"smiles": "C(=C\\c1nc2ccccc2o1)/c1ccccc1", "note": "[Compound N-407, 2-(2-phenylethenyl)-benzoxazole]", "values": [{"measurement": "TC and safety concentration margin (in words)", "setting": "ScN2a cells", "value": "higher TCs, therefore higher safety concentration margins"}, {"measurement": "Concentration of inhibiting cell proliferation TC", "setting": "ScN2a cells", "value": 100, "unit": "µM"}, {"measurement": "MTD", "setting": "in vivo", "value": "≥ 10", "unit": "mg/kg"}, {"measurement": "pIC50", "setting": "[1]", "value": 9.00}, {"measurement": "Inhibitory effects on producing abnormal prion proteins (in words)", "setting": "[1]", "value": "highly inhibitory effects"}, {"measurement": "Detection of spotted depositions of abnormal prion proteins (fluorescent signals)", "setting": "[2]", "value": "spotted fluorescent signals were observed"}, {"measurement": "Permeability into the brain: content in Brain", "setting": "[3]", "value": "16.0 % ID/g or ml"}, {"measurement": "Permeability into the brain: content in Plasma", "setting": "[3]", "value": "1.3 % ID/g or ml"}]}, {"smiles": "CNc1ccc(/C=C/c2nc3cc(F)ccc3o2)cc1", "note": "[BF-145, 2-(4-methylamino)-stryl-5-fluoro-benzoxazole]", "values": [{"measurement": "Concentration of inhibiting cell proliferation TC", "setting": "ScN2a cells", "value": 50, "unit": "µM"}, {"measurement": "MTD", "setting": "in vivo", "value": "≥ 10", "unit": "mg/kg"}, {"measurement": "pIC50", "setting": "[1]", "value": 8.30}, {"measurement": "Detection of spotted depositions of abnormal prion proteins (fluorescent signals)", "setting": "[2]", "value": "spotted fluorescent signals were observed"}, {"measurement": "Permeability into the brain: content in Brain", "setting": "[3]", "value": "4.4 % ID/g or ml"}, {"measurement": "Permeability into the brain: content in Plasma", "setting": "[3]", "value": "1.2 % ID/g or ml"}]}]}
